Target: T1, CHOK1 cells engineered to overexpress human CCR2 (Homo sapiens, UniProt P41597)
T1 construct: expressed in transfected cells; host or cells: CHOK1 cells
Experiment: Antibody dependent cellular cytotoxicity (ADCC) reporter assay (Example 199)
Format: cell-based
Conditions: with anti-cotinine antibody SEQ ID NO: 11/12; CHOK1-human CCR2 target cells, Jurkat FcγRIIIa NFAT-luciferase reporter cells; 12-18 hours; read-out: ADCC Reporter Assay pEC50 (converted)
Procedure: An antibody dependent cellular cytoxicity reporter assay was conducted using the following four assay components: (i) ARM compound of Formula (I) targeting CCR2 (concentrations ranging from 1 pM to 10 μM) (ii) anti-cotinine antibody having a heavy chain sequence of SEQ ID NO: 11 and a light chain sequence of SEQ ID NO: 12 (rabbit variable region with human IgG1 Fc domain containing a DE mutation (S239D/1332E)) (concentrations ranging from 0.01 μg/mL to 200 μg/mL); (iii) target cells: CHOK1 cells engineered to overexpress either human CCR2 (typically 1000-20,000 cells per well) and (iv) reporter cells: Jurkat cells engineered to express FcγRIIIa with the reporter gene luciferase under the control of the NFAT promoter (typically 3000-75,000 cells per well). Reagents were combined in a final volume of 20 μL in a 384-well tissue culture treated plate. All four assay components were incubated together for about 12-18 hours. Thereafter, BioGlo Detection reagent (Promega) was added to the wells to lyse the cells and provide a substrate for the luciferase reporter protein. Luminescence signal was measured on a microplate reader and signal:background was calculated by dividing the signal of a test well by the signal obtained when no heterobivalent compound of Formula (I) was added. EC50 calculations were done using Graphpad Prism Software, specifically a nonlinear regression curve fit (Y=Bottom+(Top−Bottom)/(1+10^((Log EC50−X)*HillSlope))).
ARMs compounds of Formula (I) of the invention were tested for ADCC activity in the above assay in or more experimental runs and the results are shown in Table 3 below. Potency of the compounds of Formula (I) of the invention is reported as a pEC50 value. The pEC50 value is the negative log of the EC50 value, wherein the EC50 value is the half maximal effective concentration measured in molar (M). For compounds tested in more than one experimental run, the pEC50 value is reported as an average.

In order of falling EC50:
1. CC(C)N(C)[C@@H]1CC[C@H](N2CC[C@H](Nc3ncnc4ccc(C(F)(F)F)cc34)C2=O)[C@H](NC(=O)CCCOCC23CCC(COCCNC(=O)[C@H]4CC(=O)N(C)[C@@H]4c4cccnc4)(CC2)CC3)C1 [Example 59]  251 nM
2. CC(C)N(C)[C@@H]1CC[C@H](N2CC[C@H](Nc3ncnc4ccc(C(F)(F)F)cc34)C2=O)[C@H](NC(=O)CCCOC[C@H]2CC[C@H](COCCNC(=O)[C@H]3CC(=O)N(C)[C@@H]3c3cccnc3)CC2)C1 [Example 58]  50.1 nM
3. CC(C)N(C)[C@@H]1CC[C@H](N2CC[C@H](Nc3ncnc4ccc(C(F)(F)F)cc34)C2=O)[C@H](NC(=O)C23CCC(NC(=O)CCOCCOCCOCCNC(=O)[C@H]4CC(=O)N(C)[C@@H]4c4cccnc4)(CC2)CC3)C1 [Example 25]  20 nM
4. CC(C)N(C)[C@@H]1CC[C@H](N2CC[C@H](Nc3ncnc4ccc(C(F)(F)F)cc34)C2=O)[C@H](NC2CCC(C(=O)NCCOCCOCCNC(=O)[C@H]3CC(=O)N(C)[C@@H]3c3cccnc3)CC2)C1 (some centres unmarked) [Example 68]  10 nM
5. CC(C)N(C)[C@@H]1CC[C@H](N2CC[C@H](Nc3ncnc4ccc(C(F)(F)F)cc34)C2=O)[C@H](NC(=O)CCc2ccc(C3CCN(C(=O)CCCCCNC(=O)[C@H]4CC(=O)N(C)[C@@H]4c4cccnc4)CC3)cc2)C1 [Example 86, (2S,3S)-N-(6-(4-(4-(3-(((1R,2S,5R)-5-(Isopropyl(methyl)amino)-2-((S)-2-oxo-3-((6-(trifluoromethyl)quinazolin-4-yl)amino)pyrrolidin-1-yl)cyclohexyl)amino)-3-oxopropyl)phenyl)piperidin-1-yl)-6-oxohexyl)-1-methyl-5-oxo-2-(pyridin-3-yl)pyrrolidine-3-carboxamide]  7.94 nM
6. CC(C)N(C)[C@@H]1CC[C@H](N2CC[C@H](Nc3ncnc4ccc(C(F)(F)F)cc34)C2=O)[C@H](NC(=O)c2cc(OCCOCCOCCOCCNC(=O)[C@H]3CC(=O)N(C)[C@@H]3c3cccnc3)ccn2)C1 [Example 89]  6.31 nM
7. CC(C)N(C)[C@@H]1CC[C@H](N2CC[C@H](Nc3ncnc4ccc(C(F)(F)F)cc34)C2=O)[C@H](NC(=O)c2cnn(C3CCN(CCOCCOCCNC(=O)[C@H]4CC(=O)N(C)[C@@H]4c4cccnc4)CC3)c2)C1 [Example 92, N-((1R,2S,5R)-5-(Isopropyl(methyl)amino)-2-((S)-2-oxo-3-((6-(trifluoromethyl)quinazolin-4-yl)amino)pyrrolidin-1-yl)cyclohexyl)-1-(1-(2-(2-(2-((2S,3S)-1-methyl-5-oxo-2-(pyridin-3-yl)pyrrolidine-3-carboxamido)ethoxy)ethoxy)ethyl)piperidin-4-yl)-1H-pyrazole-4-carboxamide]  6.31 nM
8. CC(C)N(C)[C@@H]1CC[C@H](N2CC[C@H](Nc3ncnc4ccc(C(F)(F)F)cc34)C2=O)[C@H](NC(=O)[C@H]2CC[C@@H](NC(=O)C3CCC4(CC3)CCN(C(=O)[C@H]3CC(=O)N(C)[C@@H]3c3cccnc3)CC4)CC2)C1 [Example 95, N-((1 S,4R)-4-(((1R,2S,5R)-5-(Isopropyl(methyl)amino)-2-((S)-2-oxo-3-((6-(trifluoromethyl)quinazolin-4-yl)amino)pyrrolidin-1-yl)cyclohexyl)carbamoyl)cyclohexyl)-3-((2S,3S)-1-methyl-5-oxo-2-(pyridin-3-yl)pyrrolidine-3-carbonyl)-3-azaspiro[5.5]undecane-9-carboxamide]  6.31 nM
9. CC(C)N(C)[C@@H]1CC[C@H](N2CC[C@H](Nc3ncnc4ccc(C(F)(F)F)cc34)C2=O)[C@H](NC(=O)COCCNC(=O)CNC(=O)COCCOCCNC(=O)[C@H]2CC(=O)N(C)[C@@H]2c2cccnc2)C1 [Example 78]  5.52 nM
10. CC(C)N(C)[C@@H]1CC[C@H](N2CC[C@H](Nc3ncnc4ccc(C(F)(F)F)cc34)C2=O)[C@H](NC(=O)C[C@H]2CC[C@H](NC(=O)CCOCCOCCOCCNC(=O)[C@H]3CC(=O)N(C)[C@@H]3c3cccnc3)CC2)C1 [Example 33]  4.54 nM
11. CN1C(=O)C[C@H](C(=O)NCCOCCOCCOCCOCCOCCOCCOCCOCCC(=O)N[C@@H]2C[C@H](NC(C)(C)C)CC[C@@H]2N2CC[C@H](Nc3ncnc4ccc(C(F)(F)F)cc34)C2=O)[C@H]1c1cccnc1 [Example 36, (2S,3S)-N-(27-(((1R,2S,5R)-5-(tert-Butylamino)-2-((S)-2-oxo-3-((6-(trifluoromethyl)quinazolin-4-yl)amino)pyrrolidin-1-yl)cyclohexyl)amino)-27-oxo-3,6,9,12,15,18,21,24-octaoxaheptacosyl)-1-methyl-5-oxo-2-(pyridin-3-yl)pyrrolidine-3-carboxamide]  3.98 nM
12. CC(C)N(C)[C@@H]1CC[C@H](N2CC[C@H](Nc3ncnc4ccc(C(F)(F)F)cc34)C2=O)[C@H](NC(=O)[C@H]2C[C@H](NC(=O)CCOCCNC(=O)CCOCCNC(=O)[C@@H]3CC(=O)N(C)[C@H]3c3cccnc3)C2)C1 [Example 45]  3.98 nM
13. CC(C)N(C)[C@@H]1CC[C@H](N2CC[C@H](Nc3ncnc4ccc(C(F)(F)F)cc34)C2=O)[C@H](NC(=O)C2CCN(C3CCN(C(=O)CCCCCNC(=O)[C@H]4CC(=O)N(C)[C@@H]4c4cccnc4)CC3)CC2)C1 [Example 87]  3.98 nM
14. CC(C)N(C)[C@@H]1CC[C@H](N2CC[C@H](Nc3ncnc4ccc(C(F)(F)F)cc34)C2=O)[C@H](NC(=O)C2CCC3(CC2)CCN(CCOCCOCCNC(=O)[C@H]2CC(=O)N(C)[C@@H]2c2cccnc2)CC3)C1 [Example 93]  3.98 nM
15. CC(C)N(C)[C@@H]1CC[C@H](N2CC[C@H](Nc3ncnc4ccc(C(F)(F)F)cc34)C2=O)[C@H](NC(=O)C2CCC(N3CCC(S(=O)(=O)NCCCCCCNC(=O)[C@H]4CC(=O)N(C)[C@@H]4c4cccnc4)CC3)CC2)C1 (single isomer, unassigned) [Example 148]  3.16 nM
16. CC(C)N(C)[C@@H]1CC[C@H](N2CC[C@H](Nc3ncnc4ccc(C(F)(F)F)cc34)C2=O)[C@H](NC(=O)c2cc(OCCOCCOCCOCCOCCNC(=O)[C@H]3CC(=O)N(C)[C@@H]3c3cccnc3)ccn2)C1 [Example 88, N-((1R,2S,5R)-5-(Isopropyl(methyl)amino)-2-((S)-2-oxo-3-((6-(trifluoromethyl)quinazolin-4-yl)amino)pyrrolidin-1-yl)cyclohexyl)-4-((1-((2S,3S)-1-methyl-5-oxo-2-(pyridin-3-yl)pyrrolidin-3-yl)-1-oxo-5,8,11,14-tetraoxa-2-azahexadecan-16-yl)oxy)picolinamide]  2.51 nM
17. CN1C(=O)C[C@H](C(=O)NCCC(=O)NCCOCCOCCC(=O)N[C@H]2CC[C@@H](C(=O)N[C@@H]3C[C@H](NC(C)(C)C)CC[C@@H]3N3CC[C@H](Nc4ncnc5ccc(C(F)(F)F)cc45)C3=O)CC2)[C@H]1c1cccnc1 [Example 51]  2 nM
18. CC(C)N(C)[C@@H]1CC[C@H](N2CC[C@H](Nc3ncnc4ccc(C(F)(F)F)cc34)C2=O)[C@H](NC(=O)C2CCN(C3CCN(CCOCCOCCNC(=O)[C@H]4CC(=O)N(C)[C@@H]4c4cccnc4)CC3)CC2)C1 [Example 90, N-((1R,2S,5R)-5-(Isopropyl(methyl)amino)-2-((S)-2-oxo-3-((6-(trifluoromethyl)quinazolin-4-yl)amino)pyrrolidin-1-yl)cyclohexyl)-1′-(2-(2-(2-((2S,3S)-1-methyl-5-oxo-2-(pyridin-3-yl)pyrrolidine-3-carboxamido)ethoxy)ethoxy)ethyl)-[1,4′-bipiperidine]-4-carboxamide]  2 nM
19. CC(C)N(C)[C@@H]1CC[C@H](N2CC[C@H](Nc3ncnc4ccc(C(F)(F)F)cc34)C2=O)[C@H](NC(=O)c2ccc(OC3CCN(CCOCCOCCNC(=O)[C@H]4CC(=O)N(C)[C@@H]4c4cccnc4)CC3)cc2)C1 [Example 91]  2 nM
20. CC(C)N(C)[C@@H]1CC[C@H](N2CC[C@H](Nc3ncnc4ccc(C(F)(F)F)cc34)C2=O)[C@H](NC(=O)[C@H]2CC[C@@H](NC(=O)CNC(=O)COCCOCCNC(=O)[C@H]3CC(=O)N(C)[C@@H]3c3cccnc3)CC2)C1 [Example 81]  0.522 nM
21. CC(C)N(C)[C@@H]1CC[C@H](N2CC[C@H](Nc3ncnc4ccc(C(F)(F)F)cc34)C2=O)[C@H](NC(=O)[C@H]2CC[C@@H](NC(=O)COCCOCCNC(=O)CCNC(=O)[C@H]3CC(=O)N(C)[C@@H]3c3cccnc3)CC2)C1 [Example 82]  0.479 nM
22. CC(C)N(C)[C@@H]1CC[C@H](N2CC[C@H](Nc3ncnc4ccc(C(F)(F)F)cc34)C2=O)[C@H](NC(=O)CCCNC(=O)CCCC(=O)NCCCOCCCNC(=O)[C@@H]2CC(=O)N(C)[C@H]2c2cccnc2)C1 [Example 21]  0.469 nM
23. CC(C)N(C)[C@@H]1CC[C@H](N2CC[C@H](Nc3ncnc4ccc(C(F)(F)F)cc34)C2=O)[C@H](NC(=O)COCC(=O)N2CCN(C(=O)N3CCN(C(=O)COCCNC(=O)[C@H]4CC(=O)N(C)[C@@H]4c4cccnc4)CC3)CC2)C1 [Example 84]  0.213 nM
